Results published in patent publication US9662320B2, “Antagonists of the cannabinoid receptor CB1 for use in the treatment of diseases associated with neuronal dendritic abnormalities” (Universitat Pompeu Fabra, priority 2013, dated 2017).

System: Fmr1^−/y mice
Assay: Dendritic spine density and morphology analysis in Fmr1−/y mice treated with rimonabant
Format: in vivo
Details: 1 mg/kg, i.p., 7 d
Experimental: Fmr1 knockout (KO) mice in FVB background (Fmr1 KO, FVB.129P2-Pde6b^+ Tyr^c-ch Fmr1^tm1Cgr/J) and wild-type mice (WT, FVB.129P2-Pde6b^+ Tyr^c-ch/AntJ) were purchased from The Jackson Laboratory and crossed to obtain Fmr1^−/y and WT littermates. All experimental animals were bred in-house at the Barcelona Biomedical Research Park (PRBB) Animal Facility. Fmr1^−/y and WT mice were used at 12 to 16 weeks of age. Mice were housed four per cage in a temperature (21±1° C.) and humidity (55±10%) controlled environment. Food and water were available ad libitum. All the experiments were performed during the light phase of a 12 h light/dark cycle (lights on at 8 am and off at 8 pm). Animals were handled for one week before starting the experiments. All animal procedures followed the standard ethical guidelines (European Communities Directive […]) and were approved by the local ethical committee (Comitè Èlic d'Experimentació Animal-Parc de Recerca Biomèdica de Barcelona, CEEA-PRBB). The PRBB has also the Animal Welfare Assurance (#A5388-01, IACUC Approval Date Jun. 8, 2009) granted by the Office of Laboratory Animal Welfare (OLAW) of the National Institutes of Health (USA). All behavioral tests were performed by researchers blind to the different experimental groups.
Rimonabant was obtained from Sanofi-Aventis (Sanofi-Aventis Recherche). Rimonabant was injected intraperitoneally (i.p.) in a volume of 10 ml per kg.
Dendritic spine analysis was performed as previously described (Lee K W. et al., Proc Natl Acad Sci USA. 2006; 103(9): 3399-404) in mice that received a chronic administration of rimonabant (1 mg kg^−1, 7 d) or its vehicle. Brains were extracted after perfusion (4% PFA in PB) 3 h after the last administration of rimonabant or vehicle solution on the seventh day of treatment. […]
Results are reported as mean±s.e.m. The experiments were evaluated by one-way analysis of variance (ANOVA) followed by the Dunnett's post-hoc test when required. […]

[1] = compared to vehicle-treated Fmr1^−/y mice

## Cc1c(C(=O)NN2CCCCC2)nn(-c2ccc(Cl)cc2Cl)c1-c1ccc(Cl)cc1 [rimonabant, 5-(4-Chlorophenyl)-1-(2,4-dichloro-phenyl)-4-methyl-N-(piperidin-1-yl)-1H-pyrazole-3-carboxamide]
CA1 field of the hippocampus
  dendritic spine density of CA1 pyramidal neurons: normalized
[1]
  mushroom/wide (mature) spines: increase
  thin/stubby (immature) spines: decrease
